The text below walks through data of publication PMC10175918 (Communications Biology, 2023).

What all share (experiment): TGFα-shedding assay-based GPCR screening with chimeric Gα subunit proteins
Holding throughout (type): cell-based

In test [1] the target is T1, 348 GPCRs (Homo sapiens, UniProt P34969).
T1 construct: expressed in transfected cells; host or cells: HEK293A
Conditions: 5-HT7 (5-hydroxytryptamine receptor 7); 10µM, Favipiravir 100μM; read-out: % GPCR activation compared to TPA.

Test [2] has as its target T2, 348 GPCRs (Homo sapiens, UniProt Q7Z7M1).
T2 construct: expressed in transfected cells; host or cells: HEK293A
Conditions: GPR144 (Adhesion G Protein-Coupled Receptor D2 (ADGRD2)); 10µM, Favipiravir 100μM; read-out: % GPCR activation compared to TPA.

The target of test [3] is T3, 348 GPCRs (Homo sapiens, UniProt O60883).
T3 construct: expressed in transfected cells; host or cells: HEK293A
T3 sequence (O60883 26-481): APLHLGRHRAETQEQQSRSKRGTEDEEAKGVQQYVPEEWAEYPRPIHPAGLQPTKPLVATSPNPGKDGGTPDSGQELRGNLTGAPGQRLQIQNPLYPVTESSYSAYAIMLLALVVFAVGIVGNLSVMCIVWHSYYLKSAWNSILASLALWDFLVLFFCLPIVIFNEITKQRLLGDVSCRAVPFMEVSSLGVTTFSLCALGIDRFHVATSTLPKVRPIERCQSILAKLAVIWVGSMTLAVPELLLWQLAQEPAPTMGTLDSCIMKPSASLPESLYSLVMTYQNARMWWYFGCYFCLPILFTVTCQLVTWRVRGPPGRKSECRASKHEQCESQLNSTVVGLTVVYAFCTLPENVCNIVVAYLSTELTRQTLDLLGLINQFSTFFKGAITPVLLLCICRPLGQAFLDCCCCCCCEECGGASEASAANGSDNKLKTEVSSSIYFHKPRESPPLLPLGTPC
Conditions: GPR37L1 (G Protein-Coupled Receptor 37 Like 1); 10µM, Favipiravir 100μM; read-out: % GPCR activation compared to TPA.

For test [4], the target named is 348 GPCRs (Homo sapiens, UniProt P30872). Conditions: SSTR1 (somatostatin receptor 1); 10µM, Favipiravir 100μM; read-out: % GPCR activation compared to TPA.
For test [5], the target named is T4, 348 GPCRs (Homo sapiens, UniProt O00421).
T4 construct: expressed in transfected cells; host or cells: HEK293A
T4 sequence (O00421 1-344): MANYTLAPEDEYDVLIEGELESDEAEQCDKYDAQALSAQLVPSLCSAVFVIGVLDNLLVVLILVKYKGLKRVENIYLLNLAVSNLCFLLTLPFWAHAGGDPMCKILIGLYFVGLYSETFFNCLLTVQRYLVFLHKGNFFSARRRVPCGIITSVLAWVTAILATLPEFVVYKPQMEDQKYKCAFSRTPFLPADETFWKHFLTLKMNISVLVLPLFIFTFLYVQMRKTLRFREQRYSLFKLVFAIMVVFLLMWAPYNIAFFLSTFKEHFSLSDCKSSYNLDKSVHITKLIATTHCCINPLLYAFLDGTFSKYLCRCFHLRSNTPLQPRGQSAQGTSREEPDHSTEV
The following applies: CCRL2 (chemokine (C-C motif) receptor-like 2); 10µM, Favipiravir 100μM; read-out: % GPCR activation compared to TPA.

The target of test [6] is T5, 348 GPCRs (Homo sapiens, UniProt P41594).
T5 construct: expressed in transfected cells; host or cells: HEK293A
Conditions: GRM5 (glutamate receptor, metabotropic 5); 10µM, Favipiravir 100μM; read-out: % GPCR activation compared to TPA.

Test [7] concerns the target T6, 348 GPCRs (Homo sapiens, UniProt Q9Y5Y3).
T6 construct: expressed in transfected cells; host or cells: HEK293A
The following applies: GPCR GPR45 (G Protein-Coupled Receptor 45); 10µM; read-out: % GPCR activation compared to TPA.

Test [8] has as its system 348 GPCRs. Conditions: 10µM.
For test [9], the target named is T7, 348 GPCRs (Homo sapiens, UniProt P51810).
T7 construct: expressed in transfected cells; host or cells: HEK293A
Conditions: GPR143 (G Protein-Coupled Receptor 143); 10µM, Favipiravir 100μM; read-out: % GPCR activation compared to TPA.

Test [10] deals with T8, 348 GPCRs (Homo sapiens, UniProt P32246).
T8 construct: expressed in transfected cells; host or cells: HEK293A
T8 sequence (P32246 1-355): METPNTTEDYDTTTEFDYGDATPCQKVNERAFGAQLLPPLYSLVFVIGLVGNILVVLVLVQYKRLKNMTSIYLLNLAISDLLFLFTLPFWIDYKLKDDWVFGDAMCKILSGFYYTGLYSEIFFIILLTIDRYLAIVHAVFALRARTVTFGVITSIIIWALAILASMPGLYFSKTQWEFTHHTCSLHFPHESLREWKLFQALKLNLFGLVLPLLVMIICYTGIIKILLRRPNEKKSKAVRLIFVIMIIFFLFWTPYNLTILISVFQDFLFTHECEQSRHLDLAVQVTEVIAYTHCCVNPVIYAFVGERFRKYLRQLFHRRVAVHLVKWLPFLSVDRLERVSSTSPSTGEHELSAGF
The following applies: CCR1 (chemokine (C-C motif) receptor 1); 10µM, Favipiravir 100μM; read-out: % GPCR activation compared to TPA.

Test [11] deals with T9, 348 GPCRs (Homo sapiens, UniProt Q9BZJ8).
T9 construct: expressed in transfected cells; host or cells: HEK293A
Conditions: GPCR GPR61 (G protein-coupled receptor 61); 10µM; read-out: % GPCR activation compared to TPA.

Test [12] has as its target T10, 348 GPCRs (Homo sapiens, UniProt P49682).
T10 construct: expressed in transfected cells; host or cells: HEK293A
T10 sequence (P49682 1-368): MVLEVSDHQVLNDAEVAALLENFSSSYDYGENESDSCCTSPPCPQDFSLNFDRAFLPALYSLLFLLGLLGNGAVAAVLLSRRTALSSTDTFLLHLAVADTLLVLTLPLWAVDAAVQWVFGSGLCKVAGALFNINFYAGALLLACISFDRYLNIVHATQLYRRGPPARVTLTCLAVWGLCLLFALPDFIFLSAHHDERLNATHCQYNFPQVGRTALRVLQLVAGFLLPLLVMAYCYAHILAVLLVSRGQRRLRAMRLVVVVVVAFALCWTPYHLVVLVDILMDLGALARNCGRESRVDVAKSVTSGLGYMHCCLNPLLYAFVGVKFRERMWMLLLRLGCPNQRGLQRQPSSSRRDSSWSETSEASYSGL
Conditions: GPCR CXCR3 (C-X-C motif chemokine receptor 3); 10µM; read-out: % GPCR activation compared to TPA.

T2 sequence (Q7Z7M1 whole entry): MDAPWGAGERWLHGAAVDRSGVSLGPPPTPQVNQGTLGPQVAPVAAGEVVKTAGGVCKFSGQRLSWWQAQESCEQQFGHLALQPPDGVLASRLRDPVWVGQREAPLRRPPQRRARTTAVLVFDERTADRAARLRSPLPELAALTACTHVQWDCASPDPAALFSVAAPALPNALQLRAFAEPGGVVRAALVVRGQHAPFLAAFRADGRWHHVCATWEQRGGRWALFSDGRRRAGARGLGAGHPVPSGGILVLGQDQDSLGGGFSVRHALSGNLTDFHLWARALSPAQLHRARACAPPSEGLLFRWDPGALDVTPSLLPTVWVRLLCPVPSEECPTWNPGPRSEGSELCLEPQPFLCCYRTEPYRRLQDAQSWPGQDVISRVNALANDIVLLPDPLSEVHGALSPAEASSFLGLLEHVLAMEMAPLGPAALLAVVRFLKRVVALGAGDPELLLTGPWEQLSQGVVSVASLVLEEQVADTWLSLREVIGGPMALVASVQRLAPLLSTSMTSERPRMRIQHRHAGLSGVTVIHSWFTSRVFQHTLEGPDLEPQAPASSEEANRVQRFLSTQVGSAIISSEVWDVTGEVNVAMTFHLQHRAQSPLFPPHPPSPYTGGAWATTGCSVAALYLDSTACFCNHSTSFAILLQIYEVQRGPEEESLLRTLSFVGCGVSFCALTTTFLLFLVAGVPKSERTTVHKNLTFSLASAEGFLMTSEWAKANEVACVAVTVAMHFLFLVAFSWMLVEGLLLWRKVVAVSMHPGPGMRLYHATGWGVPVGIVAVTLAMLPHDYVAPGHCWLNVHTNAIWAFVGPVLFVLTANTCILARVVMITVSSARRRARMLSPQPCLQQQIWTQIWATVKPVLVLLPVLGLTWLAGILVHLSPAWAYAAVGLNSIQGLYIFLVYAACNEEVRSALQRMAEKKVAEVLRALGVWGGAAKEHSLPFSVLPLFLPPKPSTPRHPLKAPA
T5 sequence (P41594 21-1212): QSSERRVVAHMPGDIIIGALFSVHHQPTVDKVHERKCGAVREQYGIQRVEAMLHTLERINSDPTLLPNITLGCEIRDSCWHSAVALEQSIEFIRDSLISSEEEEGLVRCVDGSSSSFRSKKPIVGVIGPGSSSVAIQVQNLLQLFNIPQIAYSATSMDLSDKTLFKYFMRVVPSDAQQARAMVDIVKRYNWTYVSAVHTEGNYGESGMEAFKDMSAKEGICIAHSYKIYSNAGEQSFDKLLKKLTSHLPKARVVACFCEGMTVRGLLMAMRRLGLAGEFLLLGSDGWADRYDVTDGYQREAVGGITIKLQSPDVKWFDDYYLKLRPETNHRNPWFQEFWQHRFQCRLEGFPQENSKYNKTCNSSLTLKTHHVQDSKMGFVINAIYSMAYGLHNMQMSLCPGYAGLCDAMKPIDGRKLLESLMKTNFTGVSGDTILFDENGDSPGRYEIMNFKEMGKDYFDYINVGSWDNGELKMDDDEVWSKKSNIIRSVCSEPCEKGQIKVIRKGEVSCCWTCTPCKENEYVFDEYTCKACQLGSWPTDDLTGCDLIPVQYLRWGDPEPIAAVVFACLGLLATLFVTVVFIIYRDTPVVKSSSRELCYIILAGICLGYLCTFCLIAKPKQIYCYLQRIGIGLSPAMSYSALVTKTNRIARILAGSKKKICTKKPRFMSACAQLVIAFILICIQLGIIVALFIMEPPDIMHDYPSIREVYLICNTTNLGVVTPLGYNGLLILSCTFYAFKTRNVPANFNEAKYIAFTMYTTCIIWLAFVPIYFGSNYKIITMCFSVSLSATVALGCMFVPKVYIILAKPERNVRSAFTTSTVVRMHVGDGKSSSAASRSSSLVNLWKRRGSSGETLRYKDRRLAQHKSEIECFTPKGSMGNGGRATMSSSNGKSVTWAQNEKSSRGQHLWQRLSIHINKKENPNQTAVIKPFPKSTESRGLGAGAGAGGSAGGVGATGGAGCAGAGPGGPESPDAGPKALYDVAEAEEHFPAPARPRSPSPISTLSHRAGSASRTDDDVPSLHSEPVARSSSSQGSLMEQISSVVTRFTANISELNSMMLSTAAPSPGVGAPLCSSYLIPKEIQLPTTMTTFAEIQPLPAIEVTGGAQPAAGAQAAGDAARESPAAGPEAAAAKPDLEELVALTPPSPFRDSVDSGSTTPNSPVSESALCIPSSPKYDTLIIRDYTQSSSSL
Sequence of 348 GPCRs (Homo sapiens, UniProt P30872) (P30872 whole entry): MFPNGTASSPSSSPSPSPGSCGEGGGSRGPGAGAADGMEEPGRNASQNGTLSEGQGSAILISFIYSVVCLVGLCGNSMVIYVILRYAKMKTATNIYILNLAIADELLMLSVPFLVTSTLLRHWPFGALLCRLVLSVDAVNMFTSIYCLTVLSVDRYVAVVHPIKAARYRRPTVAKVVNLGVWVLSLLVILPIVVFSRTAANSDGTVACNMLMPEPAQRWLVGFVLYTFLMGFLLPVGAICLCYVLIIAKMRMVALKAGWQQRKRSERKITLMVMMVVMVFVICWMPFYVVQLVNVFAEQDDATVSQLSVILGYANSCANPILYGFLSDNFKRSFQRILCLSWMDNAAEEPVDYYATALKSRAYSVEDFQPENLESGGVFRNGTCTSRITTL
T9 sequence (Q9BZJ8 whole entry): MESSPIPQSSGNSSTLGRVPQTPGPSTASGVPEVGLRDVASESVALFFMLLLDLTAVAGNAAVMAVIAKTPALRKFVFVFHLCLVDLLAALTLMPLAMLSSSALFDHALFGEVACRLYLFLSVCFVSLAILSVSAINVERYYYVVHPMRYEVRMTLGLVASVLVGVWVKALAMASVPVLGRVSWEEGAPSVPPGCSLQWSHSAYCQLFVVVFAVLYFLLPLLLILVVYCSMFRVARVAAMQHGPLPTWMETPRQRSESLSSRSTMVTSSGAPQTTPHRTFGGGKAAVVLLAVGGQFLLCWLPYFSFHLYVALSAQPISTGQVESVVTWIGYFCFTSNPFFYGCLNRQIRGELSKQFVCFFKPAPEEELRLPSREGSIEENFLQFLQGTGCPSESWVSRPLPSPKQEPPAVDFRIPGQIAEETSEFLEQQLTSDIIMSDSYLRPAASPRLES
T1 sequence (P34969 whole entry): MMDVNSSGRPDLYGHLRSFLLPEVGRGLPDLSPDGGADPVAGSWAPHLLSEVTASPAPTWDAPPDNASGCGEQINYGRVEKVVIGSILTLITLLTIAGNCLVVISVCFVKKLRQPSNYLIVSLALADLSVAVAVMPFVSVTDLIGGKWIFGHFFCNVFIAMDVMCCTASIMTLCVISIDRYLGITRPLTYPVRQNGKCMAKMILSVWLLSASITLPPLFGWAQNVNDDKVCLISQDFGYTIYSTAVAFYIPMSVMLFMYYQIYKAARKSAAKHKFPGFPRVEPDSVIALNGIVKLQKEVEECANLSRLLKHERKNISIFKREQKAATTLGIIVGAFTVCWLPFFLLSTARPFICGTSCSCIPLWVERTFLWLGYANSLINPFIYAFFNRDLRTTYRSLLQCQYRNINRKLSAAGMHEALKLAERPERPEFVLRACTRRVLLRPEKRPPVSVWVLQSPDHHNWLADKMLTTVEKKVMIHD
T6 sequence (Q9Y5Y3 whole entry): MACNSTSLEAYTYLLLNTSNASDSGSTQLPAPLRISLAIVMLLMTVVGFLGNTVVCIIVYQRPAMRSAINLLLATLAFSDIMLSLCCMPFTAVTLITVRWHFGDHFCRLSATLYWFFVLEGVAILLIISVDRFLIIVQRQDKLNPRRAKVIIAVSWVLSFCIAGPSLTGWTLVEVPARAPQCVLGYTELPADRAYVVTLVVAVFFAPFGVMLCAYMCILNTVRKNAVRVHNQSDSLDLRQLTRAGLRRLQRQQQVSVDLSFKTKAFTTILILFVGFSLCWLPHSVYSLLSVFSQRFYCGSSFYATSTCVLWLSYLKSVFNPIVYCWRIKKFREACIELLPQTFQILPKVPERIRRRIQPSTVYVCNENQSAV
T7 sequence (P51810 whole entry): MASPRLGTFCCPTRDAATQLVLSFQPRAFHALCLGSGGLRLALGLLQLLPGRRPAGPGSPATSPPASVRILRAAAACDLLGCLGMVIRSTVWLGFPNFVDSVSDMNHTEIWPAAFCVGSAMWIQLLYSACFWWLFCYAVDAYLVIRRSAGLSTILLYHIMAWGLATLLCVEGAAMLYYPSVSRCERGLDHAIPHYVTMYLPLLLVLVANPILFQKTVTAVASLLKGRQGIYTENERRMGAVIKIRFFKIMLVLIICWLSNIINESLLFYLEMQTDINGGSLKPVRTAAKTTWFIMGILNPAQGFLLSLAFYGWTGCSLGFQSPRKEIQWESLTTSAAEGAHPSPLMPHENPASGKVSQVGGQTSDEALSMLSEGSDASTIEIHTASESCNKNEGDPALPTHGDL

`CC(C)C(=O)OC[C@H]1O[C@@H](n2ccc(NO)nc2=O)[C@H](O)[C@@H]1O` [molnupiravir]: the activation at 100 µM in test [1] is -0.625%; in test [2] it was -1.45%; in test [9] it was -2.51%; in test [10], -1.8%. In addition, the activation at 10 µM is -1.63% in test [3]; 0.451% in [4]; -0.522% in [5]; 0.891% in test [6]; 0.592% in test [7]; -0.396% in test [11]. The activation at 10 µM in test [12] was -2.3%. In addition, the “% GPCR activation compared to TPA” value is -0.792% in [8] (EP3 iso6 (prostaglandin E receptor 3 iso6), Favipiravir 100μM); -159.537% in test [8] (GPCR GPR68 long (G protein-coupled receptor 68 long)); -0.2056% in test [8] (GPCR LTB4R2B (leukotriene B4 receptor 2)); -3.484% in test [8] (GPCR P2Y13 short (purinergic receptor P2Y, G-protein coupled, 13 short)); 0.1735% in test [8] (GPR17 short (G protein-coupled receptor 17 short), Favipiravir 100μM).
